Experimental findings from patent US9682969B2, “Phthalazinone compounds and methods for the treatment of cystic fibrosis” (FLATLEY DISCOVERY LAB, LLC, priority 2013, dated 2017) are described below.

One may read the EC50 as the concentration that produces a half-maximal response.

This experiment addresses human F508del CFTR (Homo sapiens (Human), UniProt P13569, DEL508-508). As to the kind of experiment: CFTR-YFP High Throughput Assay (YFP flux assay, FRT cells). The settings on record: FRT cells expressing human F508del CFTR and YFP. The experiment is classed as cell-based. As for the experimental part:
This protocol is designed to selectively screen small molecule compounds for F508del CFTR corrector activities in the YFP (yellow fluorescent protein) flux assay. In this protocol, the cells are incubated with testing compounds for 24 hours, washed with PBS, stimulated with forskolin and a standard potentiator, and fluorescence in each plate well is measured kinetically read on a 384-well plate reader, such as the Hamamatsu FDSS-6000.
YFP fluorescence intensity values are acquired at high speed before and after iodide buffer is injected to the assay cells. Iodide enters the cells via active CFTR channels in the plasma membrane, and quenches the YFP fluorescence. The rate of fluorescence quenching is proportionate to the total CFTR activity in the cell membrane. F508del CFTR correctors increase the number of CFTR molecules in the testing cell plasma membrane, and thereby accelerate YFP quenching.
This method was initially developed for bench top plate readers (Galietta, J, Jayaraman, S and Verkman, A S. Cell-based assay for high-throughput quantitative screening of CFTR chloride transport agonists. Am. J. Physiol. Cell Physiol. (2001), 281: C173), and was adapted to the HTS format (Sui J, Cotard S, Andersen J, Zhu P, Staunton J, Lee M, Lin S. Optimization of a Yellow fluorescent protein-based iodide influx high-throughput screening assay for cystic fibrosis transmembrane conductance regulator (CFTR) modulators. Assay Drug Dev Technol. (2010), 8: 656-668).
Fisher Rat Thyroid (FRT) cells stably expressing both human F508del CFTR and a halide-sensitive yellow fluorescent protein (YFP-H148Q/I152L 25,22) (Galietta et al. Am. J. Physiol Cell Physiol 281(5), C1734, 2001) were cultured on plastic surface in Coon's modified Ham's F12 medium supplemented with FBS 10%, L-glutamine 2 mM, penicillin 100 U/ml, and streptomycin […]. G418 (0.75-1.0 mg/ml) and zeocin (3.2 ug/ml) were used for selection of FRT cells expressing F508del CFTR and YFP. For primary screening, FRT cells were plated into 384-well black wall, transparent bottom microtiter plates (Costar; Corning Inc.) at a cell density of 20,000-40,000 per well. Test compound was applied to the cells at varying concentrations ranging from 2 nM-40 μM in either a 2-fold or 3-fold dilution series. Cells were incubated in a cell culture incubator at 37° C. with 5% CO2 for 24-26 h. Assay plates were washed with DPBS media (Thermo, cat# SH30028.02) to remove unbound cells and compound. Stimulation media (25 μL) containing 20 μM Forskolin & 30 μM P3 [6-(Ethyl-phenyl-sulfonyl)-4-oxo-1,4-dihydro-quinoline-3-carboxylic acid 2-methoxy-benzylamide] in Hams F-12 coon's modified media was added to the plate wells and incubated at room temperature for 60-120 min. 25 μL of HEPES-PBS-I buffer (10 mM HEPES, 1 mM MgCl2, 3 mM KCl, 1 mM CaCl2, 150 mM NaI) was then added and fluorescence quench curves (Excitation 500 nm/Emission 540 nm; exposure 136 ms) were immediately recorded on an FDSS-6000 plate reader (Hamamatsu). Quench rates were derived from least squares fitting of the data as described by Sui et al (2010).
This protocol is designed to selectively screen small molecule compounds for F508del CFTR potentiator activities in the YFP (yellow fluorescent protein) flux assay. Such compounds act acutely to stimulate CFTR already expressed on the membrane surface. In this protocol, the cells are incubated at 27° C. for 24 hours to homogeneously boost F508del CFTR expression in the cell membrane (low temperature correction), washed with PBS, treated with test compound, and CFTR activity is stimulated with forskolin for 1-2 hr. Measurement of ion flux is initiated by addition of iodide-containing buffer, and YFP quenching is kinetically recorded using a 384-well plate reader, such as the Hamamatsu FDSS-6000.
YFP fluorescence intensity values are acquired at high speed over a 1 min time course before and after iodide buffer is injected to the assay cells. […]

Sequence of human F508del CFTR (P13569 other isoform, or with tags, fused parts or gaps del F508-F508): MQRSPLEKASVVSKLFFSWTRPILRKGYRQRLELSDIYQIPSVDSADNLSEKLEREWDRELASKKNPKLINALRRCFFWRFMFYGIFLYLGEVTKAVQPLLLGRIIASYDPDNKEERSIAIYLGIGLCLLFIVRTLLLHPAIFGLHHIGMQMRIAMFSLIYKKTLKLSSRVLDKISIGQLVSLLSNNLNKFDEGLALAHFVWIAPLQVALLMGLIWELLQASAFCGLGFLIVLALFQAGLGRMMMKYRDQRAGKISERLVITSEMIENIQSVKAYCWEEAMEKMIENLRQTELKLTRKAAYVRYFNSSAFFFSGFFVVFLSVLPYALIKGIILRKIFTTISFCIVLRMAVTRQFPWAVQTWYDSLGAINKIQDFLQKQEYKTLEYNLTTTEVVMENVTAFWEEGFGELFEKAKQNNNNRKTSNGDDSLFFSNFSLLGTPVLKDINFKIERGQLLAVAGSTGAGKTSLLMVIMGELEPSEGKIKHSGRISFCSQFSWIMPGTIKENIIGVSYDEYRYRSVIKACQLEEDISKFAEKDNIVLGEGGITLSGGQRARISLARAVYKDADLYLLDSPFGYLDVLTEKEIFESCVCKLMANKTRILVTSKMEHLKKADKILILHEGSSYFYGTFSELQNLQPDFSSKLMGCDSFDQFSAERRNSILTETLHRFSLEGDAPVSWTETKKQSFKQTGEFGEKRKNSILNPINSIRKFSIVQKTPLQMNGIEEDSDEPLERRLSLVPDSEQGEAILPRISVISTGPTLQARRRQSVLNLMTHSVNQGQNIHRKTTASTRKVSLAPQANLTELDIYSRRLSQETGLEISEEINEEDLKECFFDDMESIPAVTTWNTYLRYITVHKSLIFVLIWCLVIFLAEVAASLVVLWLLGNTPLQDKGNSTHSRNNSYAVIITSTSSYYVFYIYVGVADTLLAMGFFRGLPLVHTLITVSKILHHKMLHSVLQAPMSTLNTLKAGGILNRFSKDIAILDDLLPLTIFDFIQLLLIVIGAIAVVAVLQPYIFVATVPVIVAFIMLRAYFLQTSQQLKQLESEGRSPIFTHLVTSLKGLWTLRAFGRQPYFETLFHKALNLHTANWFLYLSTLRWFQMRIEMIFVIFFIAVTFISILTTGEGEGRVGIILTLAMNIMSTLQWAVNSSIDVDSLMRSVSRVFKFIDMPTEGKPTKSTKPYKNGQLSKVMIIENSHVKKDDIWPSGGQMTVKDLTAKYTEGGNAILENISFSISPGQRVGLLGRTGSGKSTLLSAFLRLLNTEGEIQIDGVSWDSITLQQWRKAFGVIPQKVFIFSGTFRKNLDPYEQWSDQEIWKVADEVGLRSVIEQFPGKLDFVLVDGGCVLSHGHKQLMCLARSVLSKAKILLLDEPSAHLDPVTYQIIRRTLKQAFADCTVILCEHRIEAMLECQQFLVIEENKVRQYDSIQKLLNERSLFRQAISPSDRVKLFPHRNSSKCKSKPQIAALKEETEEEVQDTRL

As to `[2H]C([2H])([2H])N(C(=O)Cn1nc(-c2cccc(F)c2)c2ccc(OCC)cc2c1=O)c1ccc2nc(C)oc2c1` [Example 22, 2-(7-ethoxy-4-(3-fluorophenyl)-1-oxophthalazin-2(1H)-yl)-N-(methyl-d3)-N-(2-methylbenzo[d]oxazol-6-yl)acetamide], the EC50 was less than 10 µM.
As for `CCOc1ccc2c(-c3cccc(F)c3)nn(CC(=O)N(c3ccc4nc(C)oc4c3)C3CC3)c(=O)c2c1` [Example 21, N-cyclopropyl-2-(7-ethoxy-4-(3-fluorophenyl)-1-oxophthalazin-2(1H)-yl)-N-(2-methylbenzo[d]oxazol-6-yl)acetamide], the figure is less than 10 µM.
As for `CCOc1ccc2c(-c3cccc(Cl)c3)nn(CC(=O)N(C)c3ccc4nc(C)oc4c3)c(=O)c2c1` [Example 19, 2-(4-(3-chlorophenyl)-7-ethoxy-1-oxophthalazin-2(1H)-yl)-N-methyl-N-(2-methylbenzo[d]oxazol-6-yl)acetamide], the figure is less than 10 µM; as for `COc1ccc2c(-c3cccc(Cl)c3)nn(CC(=O)N(C)c3ccc4nc(C)oc4c3)c(=O)c2c1` [Example 4, 2-(4-(3-chlorophenyl)-7-methoxy-1-oxophthalazin-2(1H)-yl)-N-methyl-N-(2-methylbenzo[d]oxazol-6-yl)acetamide], less than 10 µM.
As for `[2H]C([2H])([2H])N(C(=O)Cn1nc(-c2cccc(Cl)c2)c2ccc(OC)cc2c1=O)c1ccc2nc(C)oc2c1` [Example 6, 2-(4-(3-chlorophenyl)-7-methoxy-1-oxophthalazin-2(1H)-yl)-N-(methyl-d3)-N-(2-methylbenzo[d]oxazol-6-yl)acetamide], the figure is less than 10 µM; as for `Cc1nc2ccc(N(C(=O)Cn3nc(-c4cccc(F)c4)c4ccc(O)cc4c3=O)C3CC3)cc2o1` [Example 14, N-cyclopropyl-2-(4-(3-fluorophenyl)-7-hydroxy-1-oxophthalazin-2(1H)-yl)-N-(2-methylbenzo[d]oxazol-6-yl)acetamide], less than 10 µM.
